Assay results taken from publication PMC8593400, “Effective Search of Triterpenes with Anti-HSV-1 Activity Using a Classification Model by Logistic Regression” (Frontiers in Chemistry, 2021).
Entries after “also recorded” stand apart in the source; their conditions may differ. Where two headings read alike, the source gives them in different places.

Columns and labels:
[1] = system: HSV-1 (HF strain: acyclovir-sensitive); assay: plaque reduction assay on Vero cells (anti-HSV-1 activity); assay type: cell-based, herpes simplex virus type 1; settings: for IC50: 50% inhibitory concentration, plaque reduction
Description: Antiviral effects against HSV-1 (HF strain: acyclovir-sensitive) were evaluated using a plaque reduction assay with some modifications as previously reported ([Ogawa et al., 2018]). The activity of all test compounds was measured at 25 μM, corresponding to the threshold of the prediction model. […] The protocol was performed follows.
Vero cells were maintained in Dulbecco’s Modified Eagle Medium (DMEM) supplemented with 10% fetal calf serum (FBS). Vero cells (1.7–2.8 × 10^5 cells/well) were seeded onto a 12-well tissue culture plate and precultured for 1–2 days. The cells were inoculated with 100 plaque-forming units (PFU) of HSV-1 in 0.1 ml of FBS-free DMEM. After 30 min, the inoculum was removed. HSV-infected cells were maintained in DMEM containing 10% FBS, methylcellulose, and serially diluted test compounds. After 48 h of incubation at 37°C, the medium was removed. The cell sheets were stained with 1% crystal violet dissolved in 50% methanol, and the number of plaques larger than 0.4 mm was counted. HSV-1 replication causes cytopathic effects, resulting in plaque formation. The number and size of plaques reflected virus yields. To examine the effect of virus yield reduction, the total plaque number in cells untreated with the compound was defined as 100% and set as the control group. The significant difference of test compounds at 25 μM from the control group was calculated using the Student’s t-test. The significant difference of each concentration of 10–13 and 16 from the control group was calculated by Dunnett’s test. Probability (p) values less than 0.05 were considered to be significant (^* p < 0.05, ^** p < 0.01).

[2] = cytotoxicity, CellTiter-Glo 3D cell viability assay; assay type: cell-based; settings: African green monkey
Description: (§1) All test compounds were evaluated their cytotoxicity by using CellTiter-Glo 3D® cell viability assay ([Matsumoto et al., 2020]). Briefly, Vero cells (3.0 × 10^3 cells/ well) were seeded in 96-well plates (96F Nunclon TM Delta Microwell SI; Thermo Fisher Scientific), and precultured for 24 h. The cells were treated with test compounds (10 μL/well). After 48 h, CellTiter-Glo® 3D Reagent (Promega, Madison, WI, United States) was added at 100 μL per well, mixed by shaking for 5 min at RT, and incubated for 25 min at 37°C. The cell-containing media were transferred to a 96-well white plate (96F Nunclon TM Delta White Microwell SI; Thermo Fisher Scientific). Luminescence was measured with a luminometer (FLUOstar OPTIMA®; BMG Labtech, Ortenberg, Germany).

[3] = set-up: method as in Rattanathongkom et al., 2009; settings: ref Rattanathongkom et al., 2009; cited from earlier work
[4] = system: Vero cells; assay: cytotoxicity, CellTiter-Glo 3D cell viability assay; assay type: cell-based
Description: as §1

[5] = system: HSV-1; settings: cited from earlier work; for anti-HSV-1 activity previously reported: ref Rattanathongkom et al., 2009
[6] = Human alphaherpesvirus 1, Vero, 48 h, 25 μM, plaque number vs untreated control, Vero cells, 48 h, read-out: Inhibitory rate (%) 25 μM
[7] = Human alphaherpesvirus 1, Vero, Vero cells, read-out: IC50
[8] = Human alphaherpesvirus 1, Vero, 48 h, 5 μM, plaque number vs untreated control, Vero cells, 48 h, read-out: Inhibitory rate (%) 5 μM
[9] = Human alphaherpesvirus 1, Vero, 48 h, 10 μM, plaque number vs untreated control, Vero cells, 48 h, read-out: Inhibitory rate (%) 10 μM
[10] = Human alphaherpesvirus 1, Vero, 48 h, read-out: Inhibitory rate (%) 25 μM, 25 μM, plaque number vs untreated control, Vero cells, 48 h

Compound `C[C@@H]1CC[C@]2(C(=O)O)CC[C@]3(C)C(=CC[C@@H]4[C@@]5(C)C[C@@H](O)[C@@H](O)C(C)(C)[C@@H]5CC[C@]43C)[C@@H]2[C@]1(C)O` [Compound 1, Euscaphic acid] has an inhibition at 25 µM [1, 6] of 0% and a viability at 48 h, 25 µM ([2]; Cell viability (%)) of 117 ± 5.2%.

`CC1(C)CC[C@]2(C(=O)O)CC[C@]3(C)C(=CCC4[C@@]5(C)C[C@H](O)[C@H](O)[C@@](C)(CO)C5CC[C@]43C)[C@@H]2C1` (some centres unmarked) [Compound 2, bayogenin] gave a viability at 48 h, 25 µM ([2]; Cell viability (%)) of 117 ± 6.99%.

With `C=C1CCC2(C(=O)O)C(O)CC3(C)C(=CCC4C5(C)CCC(OC6OC(C(=O)O)C(O)C(O)C6O)C(C)(C)C5CCC43C)C2C1` (centres unmarked) [Compound 4, Pfaffiaglycoside B] the inhibition at 25 µM [1, 6] was 7.64 ± 10.7% and the viability at 48 h, 25 µM ([2]; Cell viability (%)) was 108 ± 4.17%.

With `CC1(C)C(=O)CC[C@@]2(C)C1CC[C@]1(C)C2CC=C2[C@@H]3C[C@](C)(C(=O)O)CC[C@]3(C(=O)O)CC[C@]21C` (stereo partly drawn) [Compound 5, (20α)-3-oxoolean-12-ene-28,29-dioic acid] the viability at 48 h, 25 µM ([2]; Cell viability (%)) was 122 ± 5.6%.

Compound `C=C1CC[C@]2(C(=O)O)[C@@H](O)C[C@]3(C)C(=CC[C@@H]4[C@@]5(C)CC[C@H](O)C(C)(C)[C@@H]5CC[C@]43C)[C@@H]2C1` [Compound 6, pfaffianol A] has an inhibition at 25 µM [1, 6] of 12.4 ± 16.9% and a viability at 48 h, 25 µM ([2]; Cell viability (%)) of 122 ± 6.84%.

In the case of `CC(C)[C@@H](O)C[C@@H](O)[C@](C)(O)[C@H]1CC[C@@]2(O)C3=CC(=O)[C@@H]4C[C@@H](O)[C@@H](O)C[C@]4(C)[C@H]3CC[C@]12C` [Compound 7, pterosterone], the viability at 48 h, 25 µM ([2]; Cell viability (%)) is reported as 115 ± 3.95%.

`CC(C)(O)CCC[C@](C)(O)[C@H]1CC[C@@]2(O)C3=CC(=O)[C@@H]4C[C@@H](O)[C@@H](O)C[C@]4(C)C3CC[C@]12C` (some centres unmarked) [Compound 8, taxisterone] showed a viability at 48 h, 25 µM ([2]; Cell viability (%)) of 122 ± 4.78%.

`C[C@]12C[C@H](O)[C@H](O)C[C@H]1C(=O)C=C1[C@@H]2CC[C@]2(C)[C@@H](O)CC[C@@]12O` [Compound 9, 2β,3β,14α,17β-tetrahydroxy-5β-androst-7-en-6-one] gave a viability at 48 h, 25 µM ([2]; Cell viability (%)) of 106 ± 3.86%.

For `CC1(C)CCC2(C(=O)O)CCC3(C)C(=CCC4C5(C)CCC(OC6OC(C(=O)O)C(O)C(O)C6O)C(C)(C)C5CCC43C)C2C1` [Compound 10, oleanolic acid 3-O-β-D-glucuronopyranoside], the cytotoxicity previously reported [3] is listed as “cytotoxicity”, the “anti-HSV-1 activity in words (significance vs control)” value ([1]; 25 μM) is listed as “significant activity” and the IC50 ([1]; Vero cells, read-out: IC50) is listed as 14.1 µM. It also gave an IC50 [1, 7] of under 25 µM, an inhibition at 5 µM [1, 8] of 5.85 ± 8.4% and an inhibition at 10 µM [1, 9] of 27.5 ± 8.92%. For the same compound, the inhibition at 25 µM [1, 6] was 83.3 ± 41.1%, the cytotoxicity in words [4] was “showed cytotoxicity” and the “Cell viability (%)” value ([4]; African green monkey, 48 h, 10 µM) was 104.0 ± 9.28%. It also gave a viability at 48 h, 10 µM ([2]; Cell viability (%)) of 104 ± 9.28%, a viability at 48 h, 25 µM ([2]; Cell viability (%)) of 14.6% and a viability at 48 h, 50 µM ([2]; Cell viability (%)) of 1.47 ± 0.54%. The “anti-HSV-1 activity previously reported” value [5] was “did not show any anti-HSV-1 activity”.

In the case of `CC1(C)CC[C@]2(C(=O)O[C@@H]3O[C@H](CO)[C@@H](O)[C@H](O)[C@H]3O)CC[C@]3(C)C(=CC[C@@H]4[C@@]5(C)CC[C@H](O[C@@H]6O[C@H](C(=O)O)[C@@H](O)[C@H](O)[C@H]6O)C(C)(C)[C@@H]5CC[C@]43C)[C@@H]2C1` [Compound 11, chikusetsusaponin IVa], the “anti-HSV-1 activity in words (significance vs control)” value ([1]; 25 μM) is reported as “significant activity”, the “Inhibitory rate (%) 25 μM” value ([1]; 25 μM, plaque number vs untreated control, Vero cells, 48 h, 25 µM) is reported as 51.82 ± 9.61^** % and the IC50 ([1]; Vero cells) is reported as 13.1 µM. For the same compound, the IC50 ([1]; Human alphaherpesvirus 1, Vero, Vero cells) was under 25 µM, the inhibition at 5 µM ([1]; Human alphaherpesvirus 1, Vero, 48 h, read-out: Inhibitory rate (%) 5 μM, 5 μM, plaque number vs untreated control, Vero cells, 48 h) was 14.6 ± 15% and the inhibition at 10 µM ([1]; Human alphaherpesvirus 1, Vero, 48 h, read-out: Inhibitory rate (%) 10 μM, 10 μM, plaque number vs untreated control, Vero cells, 48 h) was 36.8 ± 17.4%. It also gave an inhibition at 25 µM [1, 10] of 51.8 ± 9.61%, a viability at 48 h, 25 µM ([2]; Cell viability (%)) of 112 ± 4.45% and a viability at 48 h, 50 µM ([2]; Cell viability (%)) of 113 ± 6.08%. For the same compound, the “anti-HSV-1 activity previously reported” value [5] was “exhibit anti-HSV-1 activity”.

In the case of `C=C1CCC2(C(=O)OC3OC(CO)C(O)C(O)C3O)CCC3(C)C(=CCC4C5(C)CCC(OC6OC(C(=O)O)C(O)C(O)C6O)C(C)(C)C5CCC43C)C2C1` (centres unmarked) [Compound 12, boussingoside A2], the “anti-HSV-1 activity in words (significance vs control)” value ([1]; 25 μM) is reported as “significant activity; also recorded: moderate anti-HSV-1 activity”, the inhibition at 5 µM [1, 8] is reported as 4.42 ± 8.12% and the inhibition at 10 µM [1, 9] is reported as 2.77 ± 11.6%. For the same compound, the inhibition at 25 µM [1, 6] was 24.7 ± 10.2%, the cytotoxicity in words [4] was “no cytotoxicity” and the viability at 48 h, 25 µM ([2]; Cell viability (%)) was 112 ± 6.79%. It also gave a viability at 48 h, 50 µM ([2]; Cell viability (%)) of 111 ± 9.73%.

Work on `CC(C)(O)CCC(=O)[C@](C)(O)[C@H]1CC[C@@]2(O)C3=CC(=O)[C@@H]4C[C@@H](O)[C@@H](O)C[C@]4(C)C3CC[C@]12C` (some centres unmarked) [Compound 15, 22-oxo-20-hydroxyecdysone] yielded a viability at 48 h, 25 µM ([2]; Cell viability (%)) of 115 ± 3.93%.

For `CC(C)C(C)CCC(C)C1CCC2C1(C)CCC1C23C=CC2(CC(O)CCC12C)OO3` (stereo not drawn) [Compound 16, 5α,8α-epidioxyergosta-3β-ol], the “anti-HSV-1 activity in words (significance vs control)” value ([1]; 25 μM) was “significant activity”, the inhibition at 5 µM [1, 8] was -2.49 ± 8.74% and the inhibition at 10 µM [1, 9] was 0%. For the same compound, the inhibition at 25 µM [1, 6] was 27.2 ± 5.52%, the viability at 48 h, 25 µM ([2]; Cell viability (%)) was 130 ± 6.83% and the viability at 48 h, 50 µM ([2]; Cell viability (%)) was 2.96 ± 1.77%.

Compound `C[C@@H](C1CC[C@@]2(C)C3=C(CC[C@]12C)[C@@]1(C)CC[C@H](O)C(C)(C)C1CC3)[C@H](O)/C=C/C(C)(C)OO` (stereo partly drawn) [Compound 17, 3β,22R-Dihydroxylanosta-8,23E-diene-25-peroxide] has a viability at 48 h, 25 µM ([2]; Cell viability (%)) of 16.8%.

`CC(C)=CCC[C@@H](C=O)[C@H]1CC[C@@]2(C)C3=C(CC[C@]12C)[C@@]1(C)CC[C@H](O)C(C)(C)[C@@H]1CC3` [Compound 18, 3β-hydroxylanosta-8,24-dien-21-al] showed an inhibition at 25 µM [1, 6] of 1.24 ± 3.8% and a viability at 48 h, 25 µM ([2]; Cell viability (%)) of 113 ± 4.93%.

Compound `CC(C)=CCC[C@@H](C)[C@H]1CC[C@@]2(C)C3=C(CC[C@]12C)[C@@]1(C)CC[C@H](O)C(C)(C)[C@@H]1CC3` [Compound 19, lanosterol] has an inhibition at 25 µM [1, 10] of 20.4 ± 8.49% and a viability at 48 h, 25 µM ([2]; Vero cells, 25 μM, Vero cells, 48 h, read-out: Cell viability (%)) of 101 ± 4.72%.

With `C[C@H](C/C=C/C(C)(C)OO)C1CC[C@@]2(C)C3=C(CC[C@]12C)[C@@]1(C)CC[C@H](O)C(C)(C)C1CC3` (stereo partly drawn) [Compound 20, (3β,23E)-25-hydroperoxylanosta-8,23-dien-3-ol] the inhibition at 25 µM [1, 6] was 19 ± 9.25%.

`Nc1nc2c(ncn2COCCO)c(=O)[nH]1` [acyclovir, reference compound] showed an IC50 [1, 7] of 3.08 µM, an inhibition at 2.5 µM ([1]; Human alphaherpesvirus 1, Vero, 48 h, 2.5 μM, plaque number vs untreated control, Vero cells, 48 h, read-out: Inhibitory rate (%) 2.5 μM) of 57.5 ± 11.9% and an inhibition at 10 µM [1, 9] of 96 ± 11.8%. For the same compound, the viability at 48 h, 10 µM ([2]; Vero cells, 10 μM, Vero cells, 48 h, read-out: Cell viability (%)) was 103 ± 13.8%.

For `CC1(C)CC[C@]2(C(=O)O)CC[C@]3(C)C(=CC[C@@H]4[C@@]5(C)CC[C@H](O)C(C)(C)[C@@H]5CC[C@]43C)[C@@H]2C1` [oleanolic acid, reference compound], the inhibition at 5 µM [1, 8] was 9.02 ± 4.22% and the inhibition at 25 µM [1, 6] was 21.4 ± 11.6%.

For cucurbitacin B [reference compound], the anti-HSV-1 activity ([5]; ref Hassan et al., 2017) is given as “strong anti-HSV-1 activity” and the selectivity index ([5]; ref Hassan et al., 2017) is given as “high”.
